In ChEMBL document CHEMBL3804812, “Design, Syntheses, and Anti-TB Activity of 1,3-Benzothiazinone Azide and Click Chemistry Products Inspired by BTZ043” (ACS Med Chem Lett, 2016):
Values after ≈ are worked out from the molar mass of the structure shown. Active and inactive are the calls of the source. The rule behind the calls is not given here.

Tests used:
[1] = system: Mycobacterium tuberculosis; assay: Antibacterial activity against Mycobacterium tuberculosis H37Rv in 7H12 medium by microplate alamar blue assay; assay type: functional; details: for MIC: Mycobacterium tuberculosis, H37Rv
[2] = system: Mycobacterium tuberculosis; assay: Antibacterial activity against Mycobacterium tuberculosis H37Rv in GAS medium by microplate alamar blue assay; assay type: functional; details: for MIC: Mycobacterium tuberculosis, H37Rv
[3] = system: Mycobacterium tuberculosis; assay: Antibacterial activity against Mycobacterium tuberculosis H37Rv in GAS medium at >1uM by microplate alamar blue assay; assay type: functional
[4] = molecular target: T1, Decaprenylphosphoryl-beta-D-ribose oxidase (Mycobacterium tuberculosis (strain ATCC 25618 / H37Rv)) (UniProt P9WJF1); assay: Reversible inhibition of recombinant Mycobacterium tuberculosis H37Rv DprE1 using FPR as substrate assessed as residual enzymatic activity preincubated for 10 mins followed by substrate addition by fluorescence assay
T1 sequence (whole entry): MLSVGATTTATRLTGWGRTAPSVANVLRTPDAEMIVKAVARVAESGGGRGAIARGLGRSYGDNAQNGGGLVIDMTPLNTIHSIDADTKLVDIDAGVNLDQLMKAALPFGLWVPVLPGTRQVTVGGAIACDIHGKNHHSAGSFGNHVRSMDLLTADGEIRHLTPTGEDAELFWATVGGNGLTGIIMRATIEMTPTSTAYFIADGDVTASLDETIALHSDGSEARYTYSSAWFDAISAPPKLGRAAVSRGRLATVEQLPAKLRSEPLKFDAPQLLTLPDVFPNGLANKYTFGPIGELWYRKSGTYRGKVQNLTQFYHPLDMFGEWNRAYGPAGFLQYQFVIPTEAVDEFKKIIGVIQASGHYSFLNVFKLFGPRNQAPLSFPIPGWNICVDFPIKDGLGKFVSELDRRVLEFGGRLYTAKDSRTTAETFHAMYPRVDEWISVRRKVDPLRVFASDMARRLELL

[5] = molecular target: T2, Decaprenylphosphoryl-beta-D-ribose oxidase (Mycobacterium smegmatis (strain ATCC 700084 / mc(2)155)) (UniProt A0R607); assay: Inhibition of DprE1 in P-14C-RPP-labelled Mycobacterium smegmatis MC2 155 cell membranes assessed as supression of conversion of decaprenylphosphoryl ribose to decaprenylphosphoryl arabinose after 1 hr by TLC analysis; assay type: cell-based; details: Mycolicibacterium smegmatis MC2 155
T2 sequence (whole entry): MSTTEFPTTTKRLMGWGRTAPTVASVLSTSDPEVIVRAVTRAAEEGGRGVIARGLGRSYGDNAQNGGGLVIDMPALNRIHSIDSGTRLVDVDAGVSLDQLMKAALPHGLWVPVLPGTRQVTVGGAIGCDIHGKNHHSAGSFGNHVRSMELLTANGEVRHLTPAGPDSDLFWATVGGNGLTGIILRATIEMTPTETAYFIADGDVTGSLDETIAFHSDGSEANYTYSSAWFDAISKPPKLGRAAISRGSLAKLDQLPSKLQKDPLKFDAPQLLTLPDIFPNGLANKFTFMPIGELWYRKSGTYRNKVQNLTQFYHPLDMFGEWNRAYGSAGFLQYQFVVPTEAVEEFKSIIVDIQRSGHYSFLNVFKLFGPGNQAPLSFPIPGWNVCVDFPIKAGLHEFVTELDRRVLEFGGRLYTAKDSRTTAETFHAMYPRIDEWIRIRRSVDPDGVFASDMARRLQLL

[6] = molecular target: T3, Decaprenylphosphoryl-beta-D-ribose oxidase (Mycobacterium tuberculosis (strain ATCC 25618 / H37Rv), UniProt P9WJF1); assay: Inhibition of recombinant Mycobacterium tuberculosis H37Rv DprE1 using FPR as substrate assessed as residual enzymatic activity preincubated for 10 mins followed by substrate addition by fluorescence assay
T3 sequence (P9WJF1 whole entry): T1 sequence (whole entry)

[7] = system: Mycobacterium tuberculosis; assay: Antibacterial activity against Mycobacterium tuberculosis H37Rv in 7H12 medium at >1uM by microplate alamar blue assay; assay type: functional
[8] = molecular target: T1, Decaprenylphosphoryl-beta-D-ribose oxidase (Mycobacterium tuberculosis (strain ATCC 25618 / H37Rv)); assay: Irreversible inhibition of recombinant Mycobacterium tuberculosis H37Rv DprE1 using FPR as substrate assessed as residual enzymatic activity preincubated for 10 mins followed by substrate addition by fluorescence assay

| SMILES | MIC [1] [µM] | MIC [2] [µM] | growth inhibition (GI) [3] [%] | inhibition [4] | inhibition [5] | IC50 [6] [µM] | growth inhibition (GI) [7] [%] | inhibition (INH) [1] [%] | inhibition (INH) [2] [%] | inhibition [8] |
| --- | --- | --- | --- | --- | --- | --- | --- | --- | --- | --- |
| C[C@H]1COC2(CCN(c3nc(=O)c4cc(C(F)(F)F)cc(-n5cc(CN(C)C)nn5)c4s3)CC2)O1 | 0.87 (≈ 0.444 µg/mL) | 0.95 (≈ 0.485 µg/mL) | – | – | – | – | – | – | – | – |
| CO[C@H]1/C=C/O[C@@]2(C)Oc3c(C)c(O)c4c(O)c(c(/C=N/N5CCN(C)CC5)c(O)c4c3C2=O)NC(=O)/C(C)=C\C=C\[C@H](C)[C@H](O)[C@@H](C)[C@@H](O)[C@@H](C)[C@H](OC(C)=O)[C@@H]1C [RIFAMPIN] | 0.05 (≈ 0.0411 µg/mL) | 0.04 (≈ 0.0329 µg/mL) | – | – | – | – | – | – | – | – |
| CCOC(=O)c1cn(-c2cc(C(F)(F)F)cc3c(=O)nc(N4CCC5(CC4)OC[C@H](C)O5)sc23)nn1 | 0.93 (≈ 0.489 µg/mL) | > 1 | 34 | – | – | – | – | – | – | – |
| C[C@H]1COC2(CCN(c3nc(=O)c4cc(C(F)(F)F)cc(N=[N+]=[N-])c4s3)CC2)O1 | 0.47 (≈ 0.201 µg/mL) | 0.46 (≈ 0.197 µg/mL) | – | Active | inactive | 9.6 | – | – | – | – |
| C[C@H]1COC2(CCN(c3nc(=O)c4cc(C(F)(F)F)cc(-n5cc(Cc6ccccc6)nn5)c4s3)CC2)O1 | 9.9 (≈ 5.38 µg/mL) | 9.27 (≈ 5.04 µg/mL) | 0 | – | – | – | 0 | – | – | – |
| C[C@H]1COC2(CCN(c3nc(=O)c4cc(C(F)(F)F)cc(N)c4s3)CC2)O1 | > 10 | > 10 | 0 | – | – | – | 87 | 12 | 10 | – |
| C[C@H]1COC2(CCN(c3nc(=O)c4cc(C(F)(F)F)ccc4s3)CC2)O1 | > 100 | 8.68 (≈ 3.35 µg/mL) | – | – | inactive | – | – | – | – | – |
| C[C@H]1COC2(CCN(c3nc(=O)c4cc(C(F)(F)F)cc([N+](=O)[O-])c4s3)CC2)O1 [BTZ-043] | < 0.004 | < 0.004 | – | – | Active | – | – | – | – | Active |
